Measurements: US20040097594A1 (priority 1998, published 2004)
Where two headings read alike, the source gives them in different places.

Experiments:
[1] = biological target: HIV-1 protease (Human immunodeficiency virus type 1 group M subtype B, UniProt P04585); assay: biochemical
[2] = system: HIV-1 (strain IIIB); assay: microbe, parasite or virus in culture; assay type: cell-based; settings: lower line of each compound's entry, read-out: IC50 (MT-4 cells)
[3] = HIV-1 protease, upper line of each compound's entry, read-out: Ki (enzyme)
[4] = Human immunodeficiency virus 1, 120 h, MT4 cells infected with HIV-1 strain IIIB, 5 days

Row | Structure (SMILES) | Ki [1, 3] | IC50 [2, 4] | Ki [1] | IC50 ([2]; Human immunodeficiency virus 1, IIIB, MT4, 120 h, […])
1 | Nc1ccc(S(=O)(=O)N(C[C@@H](O)[C@H](Cc2ccccc2)NC(=O)O[C@H]2CO[C@H]3OCC[C@H]32)OC2CCCCC2)cc1 [Compound 153, (3R,3aS,6aR)hexahydrofuro[2,3-b]furan-3-yl(1S,2R)-3-[[(4-aminophenyl)sulfonyl](cyclohexyloxy)amino]-1-benzyl-2-hydroxypropylcarbamate] | < 1 nM | ≤ 100 nM | – | –
2 | O=C(N[C@@H](Cc1ccccc1)[C@H](O)CN(OC1CCCC1)S(=O)(=O)c1ccc2nc[nH]c2c1)O[C@H]1CO[C@H]2OCC[C@H]21 [Compound 46, (3R,3aS,6aR)hexahydrofuro[2,3-b]furan-3-yl N-(1S,2R)-3-[(1H-benzimidazol-6-ylsulfonyl)(cyclopentyloxy)amino]-1-benzyl-2-hydroxypropylcarbamate] | < 1 nM | ≤ 100 nM | – | –
3 | COc1ccc(S(=O)(=O)N(C[C@@H](O)[C@H](Cc2ccccc2)NC(=O)OC2CO[C@H]3OCC[C@@H]23)OCC(C)C)cc1 (stereo partly drawn) [Compound 145, (3R,3aS,6aR)hexahydrofuro[2,3-b]furan-3-yl N-((1S,2R)-1-benzyl-2-hydroxy-3-isobutoxy[(4-methoxyphenyl)sulfonyl]aminopropyl)carbamate] | – | ≤ 100 nM | < 1 nM | –
4 | CC(C)(C)OC(=O)N[C@@H](Cc1ccccc1)[C@H](O)CN(OC1CCCC1)S(=O)(=O)c1ccc2[nH]c(=O)[nH]c2c1 [Compound 131, tert-Butyl-N-((1S,2R)-1-benzyl-3-(cyclopentyloxy)(2-oxybenzimidazol-5-ylsulfonyl)amino-2-hydroxypropyl)carbamate] | < 1 nM | ≤ 100 nM | – | –
5 | O=C(N[C@@H](Cc1ccccc1)[C@H](O)CN(OC1CCCC1)S(=O)(=O)c1ccc2cn[nH]c2c1)OC1CO[C@H]2OCC[C@@H]12 (stereo partly drawn) [Compound 59, (3aS,6aR)Hexahydro[2,3-b]furan-3-yl N-(1S,2R)-1-benzyl-3-[(cyclopentyloxy)(1H-indazol-6-ylsulfonyl)amino]-2-hydroxypropylcarbamate] | < 1 nM | ≤ 100 nM | – | –
6 | COc1ccc(S(=O)(=O)N(C[C@@H](O)[C@H](Cc2ccccc2)NC(=O)[C@H](CC(N)=O)NC(=O)c2ccc3ccccc3n2)OC2CCOCC2)cc1 [Compound 76, (2S)-N-(1S,2R)-1-benzyl-2-hydroxy-3-[[(4-methoxyphenyl)sulfonyl](tetrahydro-2H-pyran-4-yloxy)amino]propyl-2-[(2-quinolinylcarbonyl)amino]butanediamide] | < 1 nM | – | – | 100 to 500 nM
7 | CC(C)ON(CC(O)C(Cc1ccccc1)NC(=O)OC1COC2OCCC12)S(=O)(=O)c1ccc2nc(NS(C)(=O)=O)n(Cc3ccccc3)c2c1 (stereo not shown) [Compound 118] | > 100 nM | 500 to 1000 nM | – | –
8 | Nc1n[nH]c2ccc(S(=O)(=O)N(C[C@@H](O)[C@H](Cc3ccccc3)NC(=O)O[C@H]3CO[C@H]4OCC[C@H]43)OC3CCCC3)cc12 [Compound 108, (3R,3aS,6aR)Hexahydrofuro[2,3-b]furan-3-yl N-(1S,2R)-1-benzyl-3-[(cyclopentyloxy) (3-aminoindazole-5-ylsulfonyl)amino]-2-hydroxypropylcarbamate] | 10 to 100 nM | > 500 nM | – | –
9 | COc1ccc(S(=O)(=O)N(C[C@@H](O)[C@H](Cc2ccccc2)NC(=O)OC2COCOC2)OC2CCOCC2)cc1 [Compound 74, 1,3-dioxan-5-yl N-(1S,2R)-1-benzyl-2-hydroxy-3-[[(4-methoxyphenyl)sulfonyl](tetrahydro-2H-pyran-4-yloxy)amino]propylcarbamate] | < 1 nM | ≤ 100 nM | – | –
10 | COC(=O)Nc1nc2cc(S(=O)(=O)N(C[C@@H](O)[C@H](Cc3ccccc3)NC(=O)OC(C)(C)C)OC3CCCC3)ccc2[nH]1 [Compound 130, tert-Butyl-N-((1S,2R)-1-benzyl-3-(cyclopentyloxy)(2-[(methoxycarbonyl)amino]benzimidazol-5-ylsulfonyl)amino-2-hydroxypropyl)carbamate] | < 1 nM | ≤ 100 nM | – | –
11 | CN(C(=O)OC(C)(C)C)c1cccc(S(=O)(=O)N(C[C@@H](O)[C@H](Cc2ccccc2)NC(=O)O[C@H]2CO[C@H]3OCC[C@H]32)OC2CCCC2)c1 [Compound 128] | > 100 nM | > 1000 nM | – | –
12 | CCOC(=O)CNC(=O)NCCNc1cccc(S(=O)(=O)N(CC(O)C(Cc2ccccc2)NC(=O)OC2COC3OCCC23)OC2CCCC2)c1 (mixture of isomers) [Compound 113, Ethyl 2-[([2-(3-[[(2R,3S)-3-([(3R,3aS,6aR)hexahydrofuro[2,3-b]furan-3-yloxy]carbonylamino)-2-hydroxy-4-phenylbutyl](cyclopentyloxy)amino]sulfonylanilino)ethyl]aminocarbonyl)amino]acetate and ethyl 2-[([2-(3-[[(2R,3S)-3-([(3S,3aR,6aS)hexahydrofuro[2,3-b]furan-3-yloxy]carbonylamino)-2-hydroxy-4 phenylbutyl](cyclopentyloxy)amino]sulfonylanilino)ethyl]aminocarbonyl)amino]acetate] | < 1 nM | ≤ 100 nM | – | –
13 | COC(=O)Nc1n[nH]c2ccc(S(=O)(=O)N(C[C@@H](O)[C@H](Cc3ccccc3)NC(=O)OC3COCOC3)OC3CCCC3)cc12 [Compound 104, 1,3-Dioxan-5-yl-N-(1S,2R)-1-benzyl-3-[(cyclopentyloxy)(3-(carbomethoxyamino)-indazole-5-ylsulfonyl)amino]-2-hydroxypropylcarbamate] | < 1 nM | ≤ 100 nM | – | –
14 | O=C(N[C@@H](Cc1ccccc1)[C@H](O)CN(OC1CCCCC1)S(=O)(=O)c1ccc(O)cc1)O[C@H]1CO[C@H]2OCC[C@H]21 [Example 160, (3R,3aS,6aR)hexahydrofuro[2,3-b]furan-3-yl(1S,2R)-1-benzyl-3-{(cyclohexyloxy)[(4-hydroxyphenyl)sulfonyl]amino}-2-hydroxypropylcarbamate] | < 1 nM | ≤ 100 nM | – | –
15 | O=C(N[C@@H](Cc1ccccc1)[C@H](O)CN(OC1CCCC1)S(=O)(=O)c1ccc2cn[nH]c2c1)OC1COCOC1 [Compound 60, 1,3-Dioxan-5-yl N-(1S,2R)-1-benzyl-3-[(cyclopentyloxy)(1H-indazol-6-ylsulfonyl)amino]-2-hydroxypropylcarbamate] | < 1 nM | 100 to 500 nM | – | –
16 | CC(C)(C)OC(=O)N[C@@H](Cc1ccccc1)[C@H](O)CN(OC1CCCC1)S(=O)(=O)c1ccc2[nH]c(NC(=O)CCCl)nc2c1 [Compound 105, Tert-butyl N-(1S,2R)-1-benzyl-3-[(cyclopentyloxy)(2-[(3-chloropropionyl)amino]-1H-benzimidazol-5-ylsulfonyl)amino]-2-hydroxypropylcarbamate] | < 1 nM | ≤ 100 nM | – | –
17 | N#CCNc1cccc(S(=O)(=O)N(CC(O)C(Cc2ccccc2)NC(=O)OC2COC3OCCC23)OC2CCCC2)c1 [Compound 86, (3R,3aS,6aR)hexahydrofuro[2,3-b]furan-3-yl N-(1S,2R)-1-benzyl-3-[(3-[(cyanomethyl)amino]phenylsulfonyl)(cyclopentyloxy)amino]-2-hydroxypropylcarbamate and (3S,3aR,6aS)hexahydrofuro[2,3-b]furan-3-yl N-(1S,2R)-1-benzyl-3-[(3-[(cyanomethyl)amino]phenylsulfonyl)(cyclopentyloxy)amino]-2-hydroxypropylcarbamate] | < 1 nM | ≤ 100 nM | – | –
18 | COc1ccc(S(=O)(=O)N(C[C@@H](O)[C@H](Cc2ccccc2)NC(=O)OC(C)(C)C)OC2CCOC2)cc1 (stereo partly drawn) [Compound 20, tert-butyl N-(1S,2R)-1-benzyl-2-hydroxy-3-[[(4-methoxyphenyl)sulfonyl](tetrahydro-3-furanyloxy)amino]propylcarbamate] | 1 to 10 nM | > 1000 nM | – | –
19 | CNc1cccc(S(=O)(=O)N(C[C@@H](OP(=O)(O)O)[C@H](Cc2ccccc2)NC(=O)O[C@H]2CO[C@H]3OCC[C@H]32)OC2CCCC2)c1 [Compound 119, Phosphate ester of (3R,3aS,6aR)hexahydrofuro[2,3-b]furan-3-yl N-(1S,2R)-3-[[(3-N-methylaminophenyl)sulfonyl](cyclopentyloxy)amino]-1-benzyl-2-hydroxypropylcarbamate] | > 100 nM | > 1000 nM | – | –
20 | Nc1cccc(S(=O)(=O)N(C[C@@H](O)[C@H](Cc2ccccc2)NC(=O)O[C@H]2CO[C@H]3OCC[C@H]32)OC2CCCC2)c1 (single isomer, unassigned) [Compound 77] | < 1 nM | ≤ 100 nM | – | –
21 | O=C(N[C@@H](Cc1ccccc1)[C@H](O)CN(OC1CCCC1)S(=O)(=O)c1cccc(OCCO)c1)O[C@H]1CO[C@H]2OCC[C@H]21 [Compound 97, (3R,3aS,6aR)hexahydrofuro[2,3-b]furan-3-yl N-[(1S,2R)-1-benzyl-3-((cyclopentyloxy) [3-(2-hydroxyethoxy)phenyl]sulfonylamino)-2-hydroxypropyl]carbamate] | < 1 nM | ≤ 100 nM | – | –
22 | Nc1cccc(S(=O)(=O)N(C[C@@H](OP(=O)(O)O)[C@H](Cc2ccccc2)NC(=O)O[C@H]2CO[C@H]3OCC[C@H]32)OC2CCCC2)c1 [Compound 100, Phosphate ester of (3R,3aS,6aR)hexahydrofuro[2,3-b]furan-3-yl N-(1S,2R)-3-[[(3-aminophenyl)sulfonyl](cyclopentyloxy)amino]-1-benzyl-2-hydroxypropylcarbamate] | 10 to 100 nM | 100 to 500 nM | – | –
23 | O=C(N[C@@H](Cc1ccccc1)[C@H](O)CN(OC1CCCC1)S(=O)(=O)c1ccc2c(c1)OCCO2)OC1CO[C@H]2OCC[C@@H]12 (stereo partly drawn) [Compound 139, (3R,3aS,6aR)hexahydrofuro[2,3-b]furan-3-yl N-(1S,2R)-1-benzyl-3-[(cyclopentyloxy)(2,3-dihydro-1,4-benzodioxin-6-ylsulfonyl)amino]-2-hydroxypropylcarbamate] | – | ≤ 100 nM | < 1 nM | –
